# Experimental data as given in US20240108623A1, “METHODS OF TREATING CANCER WITH POZIOTINIB” (BOARD OF REGENTS, THE UNIVERSITY OF TEXAS SYSTEM, priority 2021, published 2024).
# How the values were obtained:
# [1] = system: PDXs harboring EGFR S768dupSVD exon 20 loop insertion mutation; assay: PDX tumor growth; assay type: in vivo, mice; details: drug 5 days per week, day 21
# EGFR A767insASV = biological target: T1, EGFR A767insASV (Homo sapiens, UniProt P00533, DUP767-769); assay: Ba/F3 cell drug screening, Cell Titer Glo; assay type: cell-based; details: Ba/F3 cells expressing EGFR A767insASV; 72 hours
# T1 construct: expressed in transfected cells; host or cells: Ba/F3 (retroviral, pBabe-Puro based vector)
# Protocol: (§1) Ba/F3 cell generation, drug screening, and IC50 approximations. Ba/F3 cells were obtained as a gift from Dr. Gordon Mills (MD Anderson Cancer Center), and maintained in RPMI (Sigma) containing 10% FBS, 1% penicillin/streptomycin, and 10 ng/ml recombinant mIL-3 (R&D Biosystems). To establish stable Ba/F3 cell lines, Ba/F3 cells were transduced with retroviruses containing mutant EGFR plasmids for 12-24 hours. Retroviruses were generated using Lipofectamine 2000 (Invitrogen) transfections of Phoenix 293T-ampho cells (Orbigen) with pBabe-Puro based vectors listed below in Table 6. Vectors were generated by GeneScript or Bioinnovatise using parental vectors from Addgene listed below in Table 6.
# (§2) After 48-72 hours of transduction, 2 μg/ml puromycin (Invitrogen) was added to Ba/F3 cell lines in complete RPMI. To select for EGFR positive cell lines, cells were stained with PE-EGFR (Biolegend) and sorted by FACS. After sorting, EGFR positive cells were maintained in RPMI containing 10% FBS, 1% penicillin/streptomycin, and 1 ng/ml EGF to support cell viability. Drug screening was performed as previously described^41,42. Shortly, cells were plated in 384-well plates (Greiner Bio-One) at 2000-3000 cells per well in technical triplicate. Seven different concentrations of TKIs or DMSO vehicle were added to reach a final volume of 40 μL per well. After 72 hours, 11p L of Cell Titer Glo (Promega) was added to each well. Plates were incubated for a minimum of 10 minutes, and bioluminescence was determined using a FLUOstar OPTIMA plate reader (BMG LABTECH). Raw bioluminescence values were normalized to DMSO control treated cells, and values were plotted in GraphPad Prism. Non-linear regressions were used to fit the normalized data with a variable slope, and IC50 values were determined by GraphPad prism by interpolation of concentrations at 50% inhibition. Drug screens were performed in technical triplicate on each plate and either duplicate or triplicate biological replicates. Mutant to WT ratios (Mut/WT) for each drug were calculated by dividing the IC50 values of mutant cell lines by the average IC50 value of Ba/F3 cells expressing WT EGFR supplemented with 10 ng/ml EGF for each drug. Statistical differences between groups were determined by ANOVA as described in the figure legends.
# EGFR L747S = biological target: T2, EGFR L747S (Homo sapiens, UniProt P00533, L747S); assay: Ba/F3 cell drug screening, Cell Titer Glo; assay type: cell-based; details: Ba/F3 cells expressing EGFR L747S; 72 hours
# T2 construct: expressed in transfected cells; host or cells: Ba/F3 (retroviral transduction, pBabe-Puro based vectors)
# Protocol: as §1, §2
# EGFR L858R = biological target: T3, EGFR L858R (Homo sapiens, UniProt P00533, L858R); assay: Ba/F3 cell drug screening, Cell Titer Glo; assay type: cell-based; details: Ba/F3 cells expressing EGFR L858R; 72 hours
# T3 construct: expressed in transfected cells; host or cells: Ba/F3 (retroviral, pBabe-Puro based vector)
# Protocol: as §1, §2
# EGFR Ex19del/T790M/L792H = biological target: T4, EGFR Ex19del/T790M/L792H (Homo sapiens, UniProt P00533, DEL746-750/L792H/T790M); assay: Ba/F3 cell drug screening, Cell Titer Glo; assay type: cell-based; details: Ba/F3 cells expressing EGFR Ex19del/T790M/L792H; 72 hours
# T4 construct: expressed in transfected cells; host or cells: Ba/F3 (retroviral transduction, pBabe-Puro based vectors)
# Protocol: as §1, §2
# EGFR L858R/V834L = biological target: T5, EGFR L858R/V834L (Homo sapiens, UniProt P00533, L858R/V834L); assay: Ba/F3 cell drug screening, Cell Titer Glo; assay type: cell-based; details: Ba/F3 cells expressing EGFR L858R/V834L; 72 hours
# T5 construct: expressed in transfected cells; host or cells: Ba/F3 (retroviral, pBabe-Puro based vector)
# Protocol: as §1, §2
# EGFR E709K G719S = biological target: T6, EGFR E709K G719S (Homo sapiens, UniProt P00533, E709K/G719S); assay: Ba/F3 cell drug screening, Cell Titer Glo; assay type: cell-based; details: Ba/F3 cells expressing EGFR E709K G719S; 72 hours
# T6 construct: expressed in transfected cells; host or cells: Ba/F3 (retroviral transduction, pBabe-Puro based vectors)
# Protocol: as §1, §2
# EGFR L858R/T790M = biological target: T7, EGFR L858R/T790M (Homo sapiens, UniProt P00533, L858R/T790M); assay: Ba/F3 cell drug screening, Cell Titer Glo; assay type: cell-based; details: Ba/F3 cells expressing EGFR L858R/T790M; 72 hours
# T7 construct: expressed in transfected cells; host or cells: Ba/F3 (retroviral transduction, pBabe-Puro based vectors)
# Protocol: as §1, §2
# EGFR V769L = biological target: T8, EGFR V769L (Homo sapiens, UniProt P00533, V769L); assay: Ba/F3 cell drug screening, Cell Titer Glo; assay type: cell-based; details: Ba/F3 cells expressing EGFR V769L; 72 hours
# T8 construct: expressed in transfected cells; host or cells: Ba/F3 (retroviral transduction, pBabe-Puro based vectors)
# Protocol: as §1, §2
# EGFR S784F = biological target: T9, EGFR S784F (Homo sapiens, UniProt P00533, S784F); assay: Ba/F3 cell drug screening, Cell Titer Glo; assay type: cell-based; details: Ba/F3 cells expressing EGFR S784F; 72 hours
# T9 construct: expressed in transfected cells; host or cells: Ba/F3 (retroviral, pBabe-Puro based vector; created by GeneScript from EGFR WT)
# Protocol: as §1, §2
# EGFR L858R T790M V843I = biological target: T10, EGFR L858R T790M V843I (Homo sapiens, UniProt P00533, L858R/T790M/V843I); assay: Ba/F3 cell drug screening, Cell Titer Glo; assay type: cell-based; details: Ba/F3 cells expressing EGFR L858R T790M V843I; 72 hours
# T10 construct: expressed in transfected cells; host or cells: Ba/F3 (retroviral transduction, pBabe-Puro based vectors)
# Protocol: as §1, §2
# EGFR I740dupIPVAK = assay: Ba/F3 cell drug screening, Cell Titer Glo; assay type: cell-based; details: Ba/F3 cells expressing EGFR I740dupIPVAK; 72 hours
# Protocol: as §1, §2
# EGFR S768I = biological target: T11, EGFR S768I (Homo sapiens, UniProt P00533, S768I); assay: Ba/F3 cell drug screening, Cell Titer Glo; assay type: cell-based; details: Ba/F3 cells expressing EGFR S768I; 72 hours
# T11 construct: expressed in transfected cells; host or cells: Ba/F3 (retroviral transduction, pBabe-Puro based vectors)
# Protocol: as §1, §2
# EGFR G724S T790M = biological target: T12, EGFR G724S T790M (Homo sapiens, UniProt P00533, G724S/T790M); assay: Ba/F3 cell drug screening, Cell Titer Glo; assay type: cell-based; details: Ba/F3 cells expressing EGFR G724S T790M; 72 hours
# T12 construct: expressed in transfected cells; host or cells: Ba/F3 (retroviral transduction, pBabe-Puro based vectors)
# Protocol: as §1, §2
# EGFR G719A = biological target: T13, EGFR G719A (Homo sapiens, UniProt P00533, G719A); assay: Ba/F3 cell drug screening, Cell Titer Glo; assay type: cell-based; details: Ba/F3 cells expressing EGFR G719A; 72 hours
# T13 construct: expressed in transfected cells; host or cells: Ba/F3 (retroviral transduction, pBabe-Puro based vectors)
# Protocol: as §1, §2
# EGFR Ex19del = biological target: T14, EGFR Ex19del (Homo sapiens, UniProt P00533, DEL746-750); assay: Ba/F3 cell drug screening, Cell Titer Glo; assay type: cell-based; details: Ba/F3 cells expressing EGFR Ex19del; 72 hours
# T14 construct: expressed in transfected cells; host or cells: Ba/F3 (retroviral, pBabe-Puro based vector)
# Protocol: as §1, §2
# EGFR V774M = biological target: T15, EGFR V774M (Homo sapiens, UniProt P00533, V774M); assay: Ba/F3 cell drug screening, Cell Titer Glo; assay type: cell-based; details: Ba/F3 cells expressing EGFR V774M; 72 hours
# T15 construct: host or cells: Ba/F3 (retroviral transduction, pBabe-Puro based vectors)
# Protocol: as §1, §2
structure (smiles),measurement,setting,value
C=CC(=O)N1CCC(Oc2cc3c(Nc4ccc(Cl)c(Cl)c4F)ncnc3cc2OC)CC1 [Poziotinib],sensitivity of Ex20ins mutations in vivo,[1],sensitive
same,Response of Cells Comprising Ex20ins EGFR Mutations to Poziotinib,EGFR A767insASV,0.3183
same,Response of Cells Comprising PACC EGFR Mutations to Second-Generation TKIs,EGFR L747S,0.01641
same,Response of Cells Comprising Classical-Like EGFR Mutations to Second-Generation TKIs,EGFR L858R,0.02579
same,Response of Cells Comprising T790M-like-R EGFR Mutations to Second-Generation TKIs,EGFR Ex19del/T790M/L792H,2157
same,Response of Cells Comprising Classical-Like EGFR Mutations to Second-Generation TKIs,EGFR L858R/V834L,0.08599
same,Response of Cells Comprising PACC EGFR Mutations to Second-Generation TKIs,EGFR E709K G719S,0.01609
same,Response of Cells Comprising T790M-like-S EGFR Mutations to Second-Generation TKIs,EGFR L858R/T790M,2.414
same,Response of Cells Comprising PACC EGFR Mutations to Second-Generation TKIs,EGFR V769L,0.05673
same,Response of Cells Comprising Classical-Like EGFR Mutations to Second-Generation TKIs,EGFR S784F,0.08572
same,Response of Cells Comprising T790M-like-S EGFR Mutations to Second-Generation TKIs,EGFR L858R T790M V843I,5.408
same,Response of Cells Comprising PACC EGFR Mutations to Second-Generation TKIs,EGFR I740dupIPVAK,0.02483
same,Response of Cells Comprising PACC EGFR Mutations to Second-Generation TKIs,EGFR S768I,4.858
same,Response of Cells Comprising T790M-like-R EGFR Mutations to Second-Generation TKIs,EGFR G724S T790M,2.924
same,Response of Cells Comprising PACC EGFR Mutations to Second-Generation TKIs,EGFR G719A,0.02575
same,Response of Cells Comprising Classical-Like EGFR Mutations to Second-Generation TKIs,EGFR Ex19del,0.07456
same,Response of Cells Comprising PACC EGFR Mutations to Second-Generation TKIs,EGFR V774M,0.01859
